Experimental data from article PMC9775652, “Concomitant Administration of Red Ginseng Extract with Lactic Acid Bacteria Increases the Plasma Concentration of Deglycosylated Ginsenosides in Healthy Human Subjects” (Biomolecules, 2022).

Tests used:
LAB = test: In vitro RGE fermentation with LAB; type: in vitro ADME; conditions: RGE incubated with LAB (1 billion CFU) for 7 days at 37 °C; result in words
Protocol: To identify the effects of LAB on ginsenoside metabolism, an in vitro fermentation study was performed according to the method of Jeon et al., with slight modifications. Briefly, RGE (10 mL, 1 pouch) and 2 g LAB (containing 1 billion CFU) were suspended in 10 mL autoclaved MRS broth (550 mg broth powder dissolved in 10 mL water). For the 15 ginsenosides, individual ginsenosides (10 μM each) and 2 g of LAB were suspended in 20 mL of autoclaved MRS broth (550 mg broth powder dissolved in 20 mL water). The mixture was incubated for 7 days in a shaking incubator at 37 °C and 300 rpm, and a 0.1 mL aliquot of the incubation mixture was collected on days 0, 3, 5, and 7. The incubation medium was diluted 100-fold with distilled water and stored at −80 °C to analyze ginsenosides using the LC-MS/MS system.
To measure the metabolic activity of ginsenosides, the formation rate of ginsenosides (pmol/day) was calculated by dividing the slope of the regression line by the amount of deglycosylated ginsenosides versus the incubation time plot by the initial concentration of individual ginsenosides.

[1] = rat, in vivo, po; cited from earlier work
P-gp = target: T1, P-gp (Homo sapiens, UniProt P08183); test: Transport of ginsenosides in P-gp-overexpressing LLC-PK1-P-gp cells; type: in vitro ADME; conditions: pig
T1 construct: host or cells: LLC-PK1-P-gp cells (passage no. 25–28)
Protocol: LLC-PK1-P-gp cells (passage no. 25–28) were seeded onto collagen-coated permeable support (1.0 μm pore size) in 24-well plates at a density of 2.5 × 10^4 cells/insert and grown for 5 days with TEER values of over 500 Ω·cm^2 [24]. The A to B transport and B to A transport of GRg3, GRh2, CK, PPD, GRg1, GRh1, and PPT (20 μM each) were measured as previously described. The concentration dependency in the B to A transport of GRh2, CK, PPD, and PPT was measured in the range of 6.25–200 μM for GRh2, CK, PPD, and PPT.
(§1) For the transport study of ginsenosides in CaCo-2 cells and LLC-PK1-P-gp cells, the ginsenoside transport rate in the A to B or B to A directions was calculated from the slope of the regression line from the mean transported amounts versus time plot. The apparent permeability (Papp) was calculated using Equation (1). (1) Papp (×10^−6 cm/s)=transport rate (nmol/min)/concentration(μM)×area(cm^2)×60s
(§2) The efflux ratio was calculated by dividing the Papp of ginsenosides from the B to A direction by that from the A to B direction.
To measure the kinetic parameters of the concentration dependence on the P-gp-mediated ginsenoside efflux, the ginsenoside transport rate in the B to A direction (ν) versus the ginsenoside concentration (S) plot was fitted in the Michaelis–Menten Equation (2) using Sigma Plot (version 12.0, Systat Software Inc. Chicago, IL, USA). (2) ν=Vmax×S/Km+S

[2] = Pharmacokinetic study of ginsenosides in healthy humans after repeated oral RGE with or without LAB; type: in vivo, human; conditions: male, human, in vivo, po
Protocol: A single-sequence study consisting of two periods was conducted on five healthy male subjects (body weight > 50 kg and age > 19 years) for 29 days. During the first period of the study (RGE treatment group), three pouches of RGE (30 mL, 104.1 mg of total ginsenosides) were administered to 5 subjects once daily for 14 days. On the 14th day, the subjects were admitted to the Clinical Trial Center of KNUH at 7 AM and underwent the last RGE administration at approximately 8–9 AM. Blood samples (approximately 3 mL) were collected at 0, 4, 6, 8, 10, 12, 13, 14, and 24 h after the last dose. A saline-locked angiocatheter was placed on the forearm of each subject’s hand. After discarding 1 mL of blood derived from the catheter, 3 mL of blood was drawn into a vacutainer tube containing heparin and centrifuged at 3000× g for 10 min. The supernatant plasma samples were stored at −80 °C until ginsenoside analysis.
In the second half of the study (RGE + LAB treatment group), 3 pouches of RGE (30 mL, 104.1 mg of total ginsenosides) and 1 pouch of LAB (1 billion CFU/2 g) were co-administered once daily for 14 days. On the […], the subjects were admitted to the Clinical Trial Center of KNUH at 7 AM and received the last red ginseng dose at approximately 8–9 AM. Blood samples (approximately 3 mL) were withdrawn at 0, 4, 6, 8, 10, 12, 13, 14, and 24 h intervals after the last dose and centrifuged at 3000× g for 10 min; the supernatant plasma samples were stored at −80 °C.
Briefly, to analyze GRb1, GRb2, GRc, GRd, GRe, GRf, GRg1, GRg3, GF1, and GF2, 400 μL of an internal standard (IS; 0.05 ng/mL berberine in methanol) was added to 100 μL of plasma. The mixture was vortexed for 15 min and centrifuged at 16,000× g for 5 min. After centrifugation, 400 μL of the supernatant was evaporated using a speed-dry vacuum concentrator (Christ, Osterode am Harz, Germany). The residue was reconstituted using 200 μL of 70% methanol supplemented with 0.1% formic acid, and a 10 μL aliquot was injected into the LC-MS/MS system. Chromatographic separation was performed using a Polar RP column (150 × 2.0 mm, 4.0 μm particle size; Phenomenex, Torrance, CA, USA) using a mobile phase consisting of 0.1% formic acid in water (phase A) and 0.1% formic acid in methanol (phase B). The following elution gradient was used: 69% of phase B for 0–2.0 min, 69–85% of phase B for 2.0–4.0 min, and 85–69% of phase B for 6.0–6.5 min. The flow rate was 0.27 mL/min.
The mixture was vortexed for 10 min and centrifuged at 16,000× g for 5 min. After centrifugation, the samples were frozen at −80 °C for 4 h. The upper layer was transferred to a clean tube and evaporated. The residue was reconstituted using 200 μL of 80% methanol supplemented with 0.1% formic acid, and a 10 μL aliquot was injected into the LC-MS/MS system. Chromatographic separation was performed using a Luna C18 column (150 × 2.0 mm, 3.0 μm particle size; Phenomenex, Torrance, CA, USA) and using a mobile phase consisting of water containing 0.1% formic acid: methanol containing 0.1% formic acid = 8:92 (v/v) at a flow rate of 0.15 mL/min.
The quantification of ginsenosides was carried out using multiple reaction monitoring in positive ionization mode, as previously described.
Finally, pharmacokinetic parameters were calculated using non-compartmental methods (WinNonlin version 5.1; Pharsight Co., Certara, NJ, USA). Statistical analysis was performed by Student’s t-test to compare the two groups using IBM SPSS Statistics for Windows (version 25.0; IBM Corp., Armonk, NY, USA). Differences were considered significant at p < 0.05.

[3] = set-up: method as in PMID 34575573; conditions: mice, LAB supplementation (Lacto-fit) for two weeks; cited from earlier work
[4] = Transport (permeability) of ginsenosides in CaCo-2 cell monolayers; type: in vitro ADME; conditions: human, Caco-2, Efflux ratio (ER)
Protocol: CaCo-2 cells (passage no 41–43) were seeded onto collagen-coated permeable support (1.0 μm pore size) in a 24-well plate at a density of 2.5 × 10^4 cells/insert and cultured for 21 days in Dulbecco’s modified eagle’s medium supplemented with 10% fetal bovine serum, 1% non-essential amino acids, and 1% penicillin-streptomycin at 37 °C in a humidified atmosphere (5% CO2/95% air). After confirming that the transepithelial electrical resistance (TEER) of the CaCo-2 cell monolayer was over 400 Ω·cm^2, Apical to basal (A to B) transport and B to A transport of ginsenosides using 50 µM, GRb1 was investigated as previously described. The same permeability study was performed using 50 µM GRb2, GRc, GRd, GRg3, GRh2, GF2, CK, PPD, GRe, GRf, GRg1, GRh1, GF1, or PPT.
as §1, §2

T1 sequence (P08183 whole entry): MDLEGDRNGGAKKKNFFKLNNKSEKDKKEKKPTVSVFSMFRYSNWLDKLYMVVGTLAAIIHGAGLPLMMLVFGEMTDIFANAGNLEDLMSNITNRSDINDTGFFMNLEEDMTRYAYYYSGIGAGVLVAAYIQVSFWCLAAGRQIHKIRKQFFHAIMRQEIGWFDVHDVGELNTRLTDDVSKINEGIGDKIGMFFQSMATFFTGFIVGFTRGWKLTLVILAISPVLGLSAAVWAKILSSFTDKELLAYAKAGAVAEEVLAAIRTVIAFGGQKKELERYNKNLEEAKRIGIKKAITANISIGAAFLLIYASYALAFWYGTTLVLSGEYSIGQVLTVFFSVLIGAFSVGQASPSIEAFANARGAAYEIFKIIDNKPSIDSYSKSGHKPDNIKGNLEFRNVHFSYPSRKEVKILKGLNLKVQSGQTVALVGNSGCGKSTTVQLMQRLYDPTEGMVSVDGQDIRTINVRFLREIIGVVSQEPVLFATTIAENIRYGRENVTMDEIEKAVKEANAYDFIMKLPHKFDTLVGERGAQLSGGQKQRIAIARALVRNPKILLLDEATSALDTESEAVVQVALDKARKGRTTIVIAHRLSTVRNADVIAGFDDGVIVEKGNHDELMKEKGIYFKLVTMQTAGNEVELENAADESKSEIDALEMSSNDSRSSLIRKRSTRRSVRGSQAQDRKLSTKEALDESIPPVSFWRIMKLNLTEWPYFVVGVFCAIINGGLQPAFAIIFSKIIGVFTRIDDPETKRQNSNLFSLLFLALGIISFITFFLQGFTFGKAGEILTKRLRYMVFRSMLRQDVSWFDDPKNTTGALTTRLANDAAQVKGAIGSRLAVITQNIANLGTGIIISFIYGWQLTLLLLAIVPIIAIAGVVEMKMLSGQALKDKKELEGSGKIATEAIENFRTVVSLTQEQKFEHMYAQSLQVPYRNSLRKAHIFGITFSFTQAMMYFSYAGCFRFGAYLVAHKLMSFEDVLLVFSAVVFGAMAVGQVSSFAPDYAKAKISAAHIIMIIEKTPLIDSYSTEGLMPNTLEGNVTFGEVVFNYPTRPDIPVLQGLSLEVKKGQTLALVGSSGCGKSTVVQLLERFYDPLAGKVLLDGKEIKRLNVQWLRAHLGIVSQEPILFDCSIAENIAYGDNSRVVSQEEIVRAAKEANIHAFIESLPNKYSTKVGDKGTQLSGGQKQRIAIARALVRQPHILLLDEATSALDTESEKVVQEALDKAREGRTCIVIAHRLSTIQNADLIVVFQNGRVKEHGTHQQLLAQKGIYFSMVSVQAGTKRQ

Question: Which “Relative abundance / metabolic activity following fermentation of RGE with LAB” value (LAB) does the source give for `CC(C)=CCCC(C)(O)C1CCC2(C)C1C(O)CC1C3(C)CCC(O)C(C)(C)C3C(O)CC12C` (stereo not drawn) [PPT, 20(s)-protopanaxatriol] here?
Answer: significantly increased

Question: And the “Oral BA” value [1]?
Answer: 3.7%

Question: What about the Papp A→B at 20 μM (P-gp; LLC-PK1) of the same molecule?
Answer: 3.73 ± 0.56 ×10⁻⁶ cm/s

Question: What about the Papp B→A at 20 μM (P-gp; LLC-PK1) of the same molecule?
Answer: 10 ± 1.1 ×10⁻⁶ cm/s

Question: What about the efflux ratio at 20 μM (P-gp; LLC-PK1, ER) of the same molecule?
Answer: 2.7

Question: What about the “CLint (intrinsic clearance)” value (P-gp; llc-pk1) of the same molecule?
Answer: 231 µL/min

Question: And the AUC ([2]; 104.1 mg)?
Answer: 59.9 ± 49.2 ng·h/mL

Question: What about the Cmax ([2]; Cmax) of the same molecule?
Answer: 9.5 ± 4.8 ng/mL

Question: And the MRT ([2]; MRT)?
Answer: 19.4 ± 10.5 h

Question: What about the Tmax ([2]; Tmax) of the same molecule?
Answer: 17.4 ± 17.4 h

Question: What about the “AUC fold increase with LAB supplementation compared to control groups” value [3] of the same molecule?
Answer: 1.63 fold

Question: What about the efflux ratio at 50 µM [4] of the same molecule?
Answer: 2.7
